The source of these data is ChEMBL document CHEMBL1649183, “Substrate-induced inactivation of the Escherichia coli AmiD N-acetylmuramoyl-L-alanine amidase highlights a new strategy to inhibit this class of enzyme” (Antimicrob Agents Chemother, 2009).

Assay [1] deals with Escherichia coli. The assay can be described thus: Inactivation of histidine6-tagged Escherichia coli LMG194 AmiD at 14 uM.
The subject of assay [2] is Escherichia coli. The assay is described as follows: Inactivation of histidine6-tagged Escherichia coli LMG194 AmiD at 27 uM.

Calls of active or inactive are those of the source. No cut-off for these calls is given here.

On to `CC(=O)N[C@H]1[C@@H]2OC[C@@H](O2)[C@@H](O[C@@H]2O[C@H](CO)[C@@H](O)C(O)[C@H]2NC(C)=O)[C@@H]1O[C@@H](C)C(=O)N[C@@H](C)C(=O)N[C@H](CCC(=O)N[C@H](CCC[C@H](N)C(=O)O)C(=O)N[C@H](C)C(=O)O)C(=O)O` (single isomer, unassigned), for which the inhibition result in the assay on Escherichia coli [1] and in the assay with Escherichia coli [2] was “Active” each time.
